Data published in paper PMC12005767 (Advanced Science, 2025).
Like-named read-outs stand apart in the source and are kept apart here.

How the values were obtained:
HDAC8 = molecular target: T1, HDAC8 (Homo sapiens, UniProt Q9BY41); test: In vitro HDACs inhibition fluorescence assay, HDAC8; type: biochemical
T1 construct: purchased BPS Bioscience
Protocol: (§1) In Vitro HDACs Inhibition Fluorescence Assay: For the inhibitory activity against HDAC1‐10, enzymes were also procured from BPS Bioscience. The in vitro […] inhibition assays were conducted following the established method described previously.^[ [45] ^] The working concentrations of HDAC1‐10 were 4 × 10^−9 M. The fluorogenic substrate of HDAC1, 2, 3, and 6 was Boc‐Lys (acetyl)‐AMC, and the substrate of HDAC4, 5, 7, 8, 9, and 10 was Boc‐Lys (trifluoroacetyl) AMC. The developer solution consists of 30 mg mL^−1 trypsin and 5 × 10^−6 M TSA. A standing period of 30 min was sufficient before assessing the fluorescence intensity.

HDAC7 = molecular target: T2, HDAC7 (Homo sapiens, UniProt Q8WUI4); test: In vitro HDACs inhibition fluorescence assay, HDAC7; type: biochemical; conditions: mean ± SEM
T2 construct: purchased BPS Bioscience
T2 sequence (Q8WUI4 whole entry): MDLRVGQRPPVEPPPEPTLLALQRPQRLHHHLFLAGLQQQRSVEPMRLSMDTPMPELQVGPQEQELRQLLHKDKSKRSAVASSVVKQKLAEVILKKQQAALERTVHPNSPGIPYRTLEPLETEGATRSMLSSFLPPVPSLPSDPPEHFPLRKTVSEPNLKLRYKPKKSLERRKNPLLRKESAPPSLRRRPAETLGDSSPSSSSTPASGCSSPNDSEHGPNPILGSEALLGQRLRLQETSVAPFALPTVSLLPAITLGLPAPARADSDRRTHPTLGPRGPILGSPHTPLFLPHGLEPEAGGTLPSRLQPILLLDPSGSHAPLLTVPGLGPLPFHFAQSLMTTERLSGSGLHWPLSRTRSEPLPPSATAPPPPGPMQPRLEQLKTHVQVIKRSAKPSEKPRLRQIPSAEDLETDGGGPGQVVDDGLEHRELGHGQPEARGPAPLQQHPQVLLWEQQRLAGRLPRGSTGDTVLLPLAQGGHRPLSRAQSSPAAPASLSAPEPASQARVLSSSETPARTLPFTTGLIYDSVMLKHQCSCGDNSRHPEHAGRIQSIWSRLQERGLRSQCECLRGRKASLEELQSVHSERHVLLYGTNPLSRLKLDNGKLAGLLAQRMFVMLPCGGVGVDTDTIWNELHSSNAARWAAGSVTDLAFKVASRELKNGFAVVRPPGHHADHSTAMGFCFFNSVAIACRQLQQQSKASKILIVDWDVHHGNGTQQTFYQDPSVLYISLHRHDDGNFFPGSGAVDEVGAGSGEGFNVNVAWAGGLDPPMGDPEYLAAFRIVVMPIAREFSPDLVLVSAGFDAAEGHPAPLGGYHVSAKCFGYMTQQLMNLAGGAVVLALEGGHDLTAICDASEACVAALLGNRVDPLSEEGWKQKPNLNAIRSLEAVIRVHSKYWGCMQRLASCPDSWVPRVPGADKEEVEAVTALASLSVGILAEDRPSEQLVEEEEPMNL
Protocol: as §1

[1] = tested on: MASLD mice (60 kcal% fat diet); test: High fat diet-induced MASLD model in mice; type: in vivo, C57BL/6J mice
Protocol: For pharmacology experiments, mice were divided into five groups (n = 8 per group): control group (C), B6 10 mg kg^−1 group [B6 (10)], high fat diet group (H), HFD + 5 mg kg^−1 B6 group [HB6 (5)], and HFD + 10 mg kg^−1 B6 group [HB6 (10). The 60 kcal% fat diet (MD12033) used for establishing the MASLD model was purchased from Medicience (Yangzhou, China). The C and B6 (10) groups were fed a chow diet for 12 weeks, followed by gavage administration of vehicle and 10 mg kg^−1 B6 for the subsequent four weeks, respectively. The H, HB6 (5) and HB6 (10) groups were fed a 60 kcal% fat diet for 12 weeks, followed by gavage administration of vehicle, 5 mg kg^−1 B6 and 10 mg kg^−1 B6 for the subsequent four weeks, respectively.
TG, FFA, and TC kits were purchased from Solarbio (Beijing, China). The liver tissues from mice were homogenized and processed according to the instructions. […]
ALT, AST, ALP, TG, NEFA, CHO, LDL‐C, and HDL‐C were assessed using a Hitachi 7020 automatic analyzer (Hitachi, Tokyo, Japan). […]
Food intake, locomotor VO2, VCO2, and heat production were measured by the TSE system, and RER were calculated using the manufacturer's system software.
(§2) Western blot was carried out as described.^[ [49] ^] In brief, samples were lysed with a lysis buffer. The same quantity of total proteins (40–60 µg) from each sample was separated on SDS‐PAGE followed by transfer onto a nitrocellulose filter membrane and incubation with the indicated antibodies. After incubation with secondary antibodies, the protein bands were visualized using a chemiluminescence imaging system. All samples in the same group were processed simultaneously.
(§3) Cells and liver tissues were extracted for total RNA. A reverse transcription kit was used to synthesize cDNA. qRT‐PCR was performed with the primers listed in Table S1 (Supporting Information) using the SYBR green PCR master mix. The coding sequence of the target gene was found in NCBI, and Primer3 (v.0.4.0) was used to design amplification primers. The results were normalized by β‐actin in the corresponding sample.

HDAC11 = molecular target: T3, HDAC11 (Homo sapiens, UniProt Q96DB2); test: HDAC11 inhibition fluorescence assay (ETDKmyr substrate); type: biochemical
T3 construct: The HDAC11 enzyme was a full‐length human recombinant HDAC enzyme sourced from BPS Bioscience; purchased BPS Bioscience
T3 sequence (Q96DB2 1-347): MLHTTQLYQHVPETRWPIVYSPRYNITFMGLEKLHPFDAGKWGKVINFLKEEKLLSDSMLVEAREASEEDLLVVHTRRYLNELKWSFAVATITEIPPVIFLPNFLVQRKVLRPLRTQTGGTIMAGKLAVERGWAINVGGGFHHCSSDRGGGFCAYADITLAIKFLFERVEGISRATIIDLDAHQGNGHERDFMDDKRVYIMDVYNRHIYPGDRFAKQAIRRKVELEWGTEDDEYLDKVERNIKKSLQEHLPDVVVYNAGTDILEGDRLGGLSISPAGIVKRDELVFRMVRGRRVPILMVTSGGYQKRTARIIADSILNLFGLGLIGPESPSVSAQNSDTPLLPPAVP
Protocol: The HDAC11 enzyme was a full‐length human recombinant HDAC enzyme sourced from BPS Bioscience. In detail, a total of 20 µL of recombinant HDAC11 enzyme solution (working concentration = 1 × 10^−9 M) was combined with varying concentrations of the test compound (20 µL) in a 96‐well black plate. The mixture was then incubated at a temperature of 30 °C for a duration of 1 h. Subsequently, 10 µL of the specific fluorogenic substrate (ETDKacyl‐Kmyr) was added. Following 2 h incubation at 30 °C, the catalytic reaction was ceased by adding 10 µL of a developer solution consisting of 2 mg mL^−1 trypsin and 5 × 10^−6 M trichostatin A (TSA). After a standing period of 6 h, the fluorescence intensity was assessed using a microplate reader at excitation and emission wavelengths of 360 and 460 nm, respectively. The inhibition ratios were calculated based on the fluorescence intensity readings of the test wells compared to the control wells. GraphPad Prism 8.0 software was employed to generate IC 50 curves and determine the corresponding IC 50 values utilizing the “log(inhibitor) versus normalized response‐variable slope” function.

[2] = tested on: SREBP1c, FASN, SCD1, CPT1A, PGC1α, PPARα, p-AMPKα (Thr172), LKB1 in HepG2 cells; test: Protein and mRNA expression and AMPKα phosphorylation in FFA-induced HepG2 cells; type: cell-based, human
Protocol: For the lipid accumulation experiment, HepG2 cells were incubated for 24 h in DMEM containing 0.5 × 10^−3 M of a mixture of free fatty acids (FFA; oleic acid: palmitic acid = 2:1) and 1% FFA‐free bovine serum albumin to induce intracellular lipid accumulation, together with B6 treatment.
as §2, §3

AML12 cells = test: FFA-induced lipid accumulation in AML12 cells (Oil Red O); type: cell-based; conditions: 24 h
HDAC6 = molecular target: T4, HDAC6 (Homo sapiens, UniProt Q9UBN7); test: In vitro HDACs inhibition fluorescence assay, HDAC6; type: biochemical; conditions: mean ± SEM
T4 construct: purchased BPS Bioscience
T4 sequence (Q9UBN7 whole entry): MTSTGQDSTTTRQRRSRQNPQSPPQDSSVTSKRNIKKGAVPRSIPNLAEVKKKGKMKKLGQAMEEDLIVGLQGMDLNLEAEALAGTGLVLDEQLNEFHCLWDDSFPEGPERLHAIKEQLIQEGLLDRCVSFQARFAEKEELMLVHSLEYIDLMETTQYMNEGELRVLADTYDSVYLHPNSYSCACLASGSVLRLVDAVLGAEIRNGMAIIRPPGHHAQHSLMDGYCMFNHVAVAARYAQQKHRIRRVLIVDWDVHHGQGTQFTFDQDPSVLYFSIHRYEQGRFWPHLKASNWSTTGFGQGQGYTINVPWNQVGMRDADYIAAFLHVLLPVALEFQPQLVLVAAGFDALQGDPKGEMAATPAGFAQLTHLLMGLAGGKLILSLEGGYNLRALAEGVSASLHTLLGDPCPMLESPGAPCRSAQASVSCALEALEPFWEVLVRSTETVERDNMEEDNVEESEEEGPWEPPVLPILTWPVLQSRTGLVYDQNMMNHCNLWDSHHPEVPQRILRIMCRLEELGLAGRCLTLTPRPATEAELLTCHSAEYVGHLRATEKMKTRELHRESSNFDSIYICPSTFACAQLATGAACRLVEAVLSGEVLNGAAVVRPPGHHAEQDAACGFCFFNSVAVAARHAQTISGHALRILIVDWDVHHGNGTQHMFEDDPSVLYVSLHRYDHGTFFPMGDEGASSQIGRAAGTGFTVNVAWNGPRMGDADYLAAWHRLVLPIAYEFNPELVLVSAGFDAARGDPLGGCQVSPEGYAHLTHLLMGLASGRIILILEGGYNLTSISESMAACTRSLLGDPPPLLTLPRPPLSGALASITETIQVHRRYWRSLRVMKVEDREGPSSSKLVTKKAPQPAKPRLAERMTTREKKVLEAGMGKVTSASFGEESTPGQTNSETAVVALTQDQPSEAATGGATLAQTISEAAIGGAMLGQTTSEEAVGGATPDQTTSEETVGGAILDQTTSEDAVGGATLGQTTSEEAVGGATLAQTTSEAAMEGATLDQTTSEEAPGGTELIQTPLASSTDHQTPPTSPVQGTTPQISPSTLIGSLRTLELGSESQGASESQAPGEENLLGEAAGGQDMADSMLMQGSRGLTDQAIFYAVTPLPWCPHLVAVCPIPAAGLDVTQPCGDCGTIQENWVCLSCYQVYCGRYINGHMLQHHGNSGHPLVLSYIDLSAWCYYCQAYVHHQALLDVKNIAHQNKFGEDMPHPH
Protocol: as §1

[3] = FFA-induced HepG2 cells, 0.5 × 10^−6 M, 24 h
[4] = FFA-treated HepG2 cells, 0.5 × 10^−6 M, 24 h

T1 sequence (Q9BY41 whole entry): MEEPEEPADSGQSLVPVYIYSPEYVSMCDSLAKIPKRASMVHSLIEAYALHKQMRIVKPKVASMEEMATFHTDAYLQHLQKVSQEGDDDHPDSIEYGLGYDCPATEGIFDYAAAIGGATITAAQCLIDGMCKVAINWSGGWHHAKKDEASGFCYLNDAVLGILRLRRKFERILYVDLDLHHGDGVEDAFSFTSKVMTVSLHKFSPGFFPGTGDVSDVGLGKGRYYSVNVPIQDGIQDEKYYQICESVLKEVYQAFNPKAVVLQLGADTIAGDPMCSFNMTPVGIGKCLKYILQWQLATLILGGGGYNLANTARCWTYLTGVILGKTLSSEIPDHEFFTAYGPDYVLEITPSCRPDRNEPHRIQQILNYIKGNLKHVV

Question: Which IC50 (HDAC8) does the source give for `CCCCCOCCCCCNNC(=O)c1ccc(CNC(=O)c2ccccc2)cc1` [B6] here?
Answer: 5 µM

Question: What about the IC50 (HDAC8; mean ± SEM) of the same compound?
Answer: 4.76 ± 0.159 µM

Question: What about the IC50 (HDAC7) of the same compound?
Answer: > 10 µM

Question: What about the “body weight, chow diet (C group vs B6 (10) group)” value ([1]; 10 mg kg^−1 p.o., chow diet) of the same compound?
Answer: no significant differences in body weight

Question: And the “body weight of high fat diet mice” value ([1]; 5 or 10 mg kg^−1 p.o., final 4 weeks, dose-dependent)?
Answer: reduction in body weight

Question: And the “blood lipids NEFA, CHO, LDL-C” value ([1]; HFD mice)?
Answer: reduce the elevated levels of blood lipids

Question: And the “glucose tolerance test and insulin tolerance test” value ([1]; HFD mice)?
Answer: improved glucose tolerance and insulin resistance

Question: What about the “phosphorylation of AMPKα at Thr172 in mouse liver” value ([1]; HFD mice) of the same compound?
Answer: restores the phosphorylation level

Question: What about the “serum ALT, AST and ALP (liver damage)” value ([1]; HFD mice) of the same compound?
Answer: alleviate liver damage

Question: What about the “serum HDL-C” value ([1]; HFD mice) of the same compound?
Answer: no significant effect

Question: What about the “liver size and weight, body fat mass” value ([1]; HFD mice, 5 or 10 mg kg^−1 p.o.) of the same compound?
Answer: effectively controlled

Question: And the “hepatic lipid content (TG, FFA, TC)” value ([1]; HFD mice, 5 or 10 mg kg^−1 p.o., dose-dependent)?
Answer: reduction in hepatic lipid content

Question: And the “O2 consumption (VO2), CO2 production (VCO2) and heat” value ([1]; HFD mice, compared to H group)?
Answer: increase

Question: And the “liver protein and mRNA levels of CPT1A, PGC1α and PPARα” value ([1]; HFD mice, compared to H group)?
Answer: restored

Question: And the “respiratory exchange ratio (RER)” value ([1]; HFD mice, metabolic cages)?
Answer: slight increase in RER value

Question: And the “liver protein and mRNA expression of SREBP1c, FASN and SCD1” value ([1]; HFD mice, dose-dependent)?
Answer: downregulation

Question: And the “food intake of mice” value ([1]; mouse, in vivo)?
Answer: no effect on food intake

Question: What about the IC50 (HDAC11) of the same compound?
Answer: 0.0511 µM

Question: And the “LKB1 mRNA levels” value ([2]; FFA-induced HepG2 cells)?
Answer: increase in LKB1 mRNA levels

Question: What about the “mRNA levels of CaMKKβ and TAK1” value ([2]; FFA-induced HepG2 cells) of the same compound?
Answer: did not exhibit significant changes

Question: What about the “protein and mRNA expression of CPT1A, PGC1α and PPARα” value [2, 3] of the same compound?
Answer: upregulation of protein and mRNA expression

Question: What about the “protein and mRNA expression of SREBP1c, FASN and SCD1” value [2, 3] of the same compound?
Answer: reduction of protein and mRNA expression

Question: And the “phosphorylation of AMPKα at Thr172” value [2, 4]?
Answer: restores the phosphorylation level

Question: What about the “protein expression of LKB1 and p-LKB1” value [2, 4] of the same compound?
Answer: increase LKB1 expression

Question: And the “concentration of maximal effect on lipid accumulation” value (AML12 cells)?
Answer: 500 nM

Question: What about the FFA-induced lipid accumulation (AML12 cells; various concentrations) of the same compound?
Answer: significantly mitigated

Question: And the IC50 (HDAC6)?
Answer: > 10 µM
